The subject of test [1] is T lymphocytes and CEM cells. The conditions noted are these: cited from earlier work; for induce chemotaxis: T lymphocytes and CEM cells; for fold less potent than SDF-1: chemoattractant activity, relative to native SDF-1; for EC50: read-out: half-maximal chemoattractant activity.
Test [2] deals with T lymphocytes and CEM cells. The conditions noted are these: cited from earlier work.
Test [3] addresses CXC chemokine receptor 4 (CXCR4) (Homo sapiens, UniProt P61073). To be noted: cited from earlier work.
In test [4] the target is T1, MMP-2 (Homo sapiens, UniProt P08253).
T1 sequence (P08253 110-660): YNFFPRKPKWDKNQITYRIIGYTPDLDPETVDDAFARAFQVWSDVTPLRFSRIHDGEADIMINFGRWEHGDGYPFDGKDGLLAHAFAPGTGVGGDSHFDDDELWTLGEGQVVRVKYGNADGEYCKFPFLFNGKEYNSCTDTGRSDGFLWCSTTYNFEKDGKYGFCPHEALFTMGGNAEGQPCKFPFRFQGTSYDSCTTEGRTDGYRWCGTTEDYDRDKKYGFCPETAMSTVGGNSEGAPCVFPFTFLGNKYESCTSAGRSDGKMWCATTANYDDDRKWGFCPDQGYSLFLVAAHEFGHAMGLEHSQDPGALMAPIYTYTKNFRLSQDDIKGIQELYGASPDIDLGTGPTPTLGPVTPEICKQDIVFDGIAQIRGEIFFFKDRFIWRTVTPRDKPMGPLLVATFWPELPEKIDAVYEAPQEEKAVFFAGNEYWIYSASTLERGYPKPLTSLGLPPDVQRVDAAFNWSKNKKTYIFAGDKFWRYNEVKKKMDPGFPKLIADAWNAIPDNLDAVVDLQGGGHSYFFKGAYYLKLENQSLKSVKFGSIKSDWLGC
The test is described as follows: MMP-2 cleavage, incubation product examined by SDS-PAGE. It counts as biochemical. The conditions noted are these: for cleavage by MMP-2 (SDS-PAGE): 2 nmole peptide incubated with MMP-2 for 1 h at RT. As for the experimental part: The susceptibility of the peptides to cleavage by MMP-2 was determined by incubating the mutants with the enzyme for one hour and then examining the incubation product by SDS-PAGE.
Cleavage experiments of the peptides with MMP-2 were performed: 2 nmole of SDF-1 17AA, SDF-1(S4V) 17AA, and SDF-1(L5P) 17AA were incubated with MMP-2 for 1 h at RT. Proteins were run on an SDS-PAGE showing cleavage of SDF-1 17AA, but not of SDF-1(S4V) 17AA or SDF-1(L5P) 17AA. Thus, these truncated proteins may be useful therapeutically, as they are still bioactive and also MMP-2 resistant.

Test [5] has as its system Jurkat T cells. The test is described as follows: Jurkat T cell migration assay. Format: cell-based. To be noted: for activity on T-cell migration: compared to native SDF-1; for activity in promoting T cell migration: concentration of 100 nM, versus unmutated SDF-1. As to the method: Cells from a 4-L growth were lysed in 300 ml lysis buffer (6M Guanidine, 20 mM phosphate (pH 7.8), 500 mM NaCl) and homogenized. Debris is collected by centrifugation at 3000 g. The first purification step consisted of capture of the poly-histidine tag present in the SUMO-SDF-1α fusion protein with Nickel-NTA. Nickel-NTA resin was washed with wash buffer (8M Urea, 500 mM NaCl, 20 mM phosphate (pH 6.2)) and the bound protein was eluted at pH 4. Further purification and oxidative refolding were performed on a Cation Exchange HPLC column. The sample was adjusted to binding buffer (8M Urea, 30 mM 2-mercaptoethanol, 1 mM EDTA, 50 mM Tris pH8) and loaded on the HPLC column. Refolding of Sumo-SDF-1 was performed on the column with a 2 h run of refolding buffer (50 mM Tris pH8, 75 mM NaCl, 0.1 mM reduced Glutathione and 0.1 mM oxidized Glutathione). Sumo-SDF-1 was eluted with a step gradient (0.5 to 1M NaCl) and concentrated. The SUMO-SDF-1 fusion protein was cleaved by Sumo Protease 1 (IU/50 μg protein) in 50 mM Tris pH 8.0, 500 mM NaCl. The sample was adjusted to 0.1% trifluoroacetic acid (TFA) and loaded on a C18 Reversed Phase HPLC column for the final purification step. The column was subjected to a linear gradient from 30 to 40% acetonitrile in 0.1% TFA. The fractions containing SDF-1 were lyophilized and resuspended. Activity of purified SDF-1 was tested by migration of Jurkat T-lymphocyte cell line.
The mutated forms of SDF-1 were examined in an assay of migration of Jurkat T cells at a concentration of 100 nM.
Migration experiments were performed with the Jurkat T-lymphocyte cell line. […] Therefore, if 500 times higher concentrations were used compared to full-length protein, the same migratory response of T-lymphocytes should be observed. […] This is a similar shift to that seen between native SDF-1 and SDF-1(S4V).

Test [6] has as its target T1, MMP-2. The test is described as follows: Jurkat T-cell migration assay after MMP-2 incubation. It counts as cell-based.

Data on 13 substances can be found in US10774124B2, “Protease resistant mutants of stromal cell derived factor-1 in the repair of tissue damage” (THE BRIGHAM AND WOMEN'S HOSPITAL, INC., priority 2006, dated 2020).

Where two headings read alike, the source gives them in different places. No end group written: not given here.

Chain of CXC chemokine receptor 4 (CXCR4) (P61073 whole entry): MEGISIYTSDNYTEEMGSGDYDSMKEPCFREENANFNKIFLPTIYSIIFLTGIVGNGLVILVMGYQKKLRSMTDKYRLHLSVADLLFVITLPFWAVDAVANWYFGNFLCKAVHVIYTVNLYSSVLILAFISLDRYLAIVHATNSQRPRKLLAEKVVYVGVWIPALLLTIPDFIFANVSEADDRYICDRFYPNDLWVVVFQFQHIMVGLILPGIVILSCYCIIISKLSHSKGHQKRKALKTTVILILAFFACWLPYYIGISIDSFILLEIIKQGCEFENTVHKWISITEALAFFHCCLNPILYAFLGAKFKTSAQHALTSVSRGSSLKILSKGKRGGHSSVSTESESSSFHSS

As to “1-8: peptide of N-terminal residues 1-8 of SDF-1 (KPVSLSYR; UniProt P48061 22-29, looked up, fragment)”, in test [1], the induce chemotaxis result was “induce”. The induce intracellular calcium result in test [2] is reported as “induce”. Besides, the “bind to CXCR4” value in test [3] is listed as “bind”.
Take “1-9 dimer: dimer of the SDF-1 1-9 peptide (KPVSLSYRC; also: dimer; UniProt P48061 22-30, looked up, fragment)”: in test [1], the induce chemotaxis entry is listed as “induce”, the “fold less potent than SDF-1” value is listed as 100 fold and the EC50 is 500 nM. Further, the induce intracellular calcium entry in test [2] is “induce”. The “bind to CXCR4” value in test [3] is reported as “bind”.
Regarding “1-9: peptide of N-terminal residues 1-9 of SDF-1 (KPVSLSYRC; UniProt P48061 22-30, looked up, fragment)”, in test [1], the induce chemotaxis entry is “induce” and the “fold less potent than SDF-1” value was 3600 fold. Also, in test [2], the induce intracellular calcium result was “induce”. For the same substance, in test [3], the “bind to CXCR4” value is “bind”.
With “1-17: peptide of N-terminal residues 1-17 of SDF-1 (KPVSLSYRCPCRFFESH; UniProt P48061 22-38, looked up, fragment)”, in test [1], the induce chemotaxis result is “induce” and the “fold less potent than SDF-1” value is listed as 400 fold. Also, the induce intracellular calcium entry in test [2] is given as “induce”. In addition, the “bind to CXCR4” value in test [3] is recorded as “bind”.
Turning to “SCR: GIVGPL (SEQ ID NO:58), linker sequence, a scrambled version of the MMP-2 cleavage site MCS (listed as Homo sapiens)”, in test [4] (rate compared with MCS), the “MMP-2 cleavage of linker sequence” value is listed as “undergo MMP-2 cleavage, although at a slower rate than MCS”.
Regarding “SDF-1 17AA: KPVSLSYRCPCRFFESH (SEQ ID 64), first 17 amino acids of native SDF-1 (listed as Homo sapiens)”, the “times less potent than native SDF-1” value in test [5] (Jurkat T-lymphocyte migration) amounted to 500 times. In addition, the “cleavage by MMP-2 (SDS-PAGE)” value in test [4] is reported as “cleavage”.
Consider “SDF-1(L5E): SDF-1 mutant, leucine at position 5 changed to glutamic acid”, for which, in test [5], the “activity on T-cell migration” value is on record as “minimal activity” and the “activity in promoting T cell migration” value was “greatly reduced”.
With “SDF-1(L5P) 17AA: KPVSPSYRCPCRFFESH (SEQ ID 66) (listed as Homo sapiens)”, in test [5] (Jurkat T-lymphocyte migration), the “times less potent than SDF-1 17AA without mutation” value is “three times less potent”. For the same substance, the “cleavage by MMP-2 (SDS-PAGE)” value in test [4] is listed as “not”.
With “SDF-1(L5P): SDF-1 mutant, leucine at position 5 changed to proline, SEQ ID NO:56”, in test [5], the “activity on T-cell migration” value was “bioactivity comparable to native SDF-1” and the “activity in promoting T cell migration” value was “retained most of the activity of unmutated SDF-1”.
As to “SDF-1(L5W): SDF-1 mutant, leucine at position 5 changed to tryptophan”, in test [5], the “activity on T-cell migration” value is reported as “minimal activity” and the “activity in promoting T cell migration” value is recorded as “greatly reduced”.
“SDF-1(S4V) 17AA: KPVVLSYRCPCRFFESH (SEQ ID 65) (listed as Homo sapiens)”: the “times less potent than SDF-1 17AA without mutation” value in test [5] (Jurkat T-lymphocyte migration) is on record as “three times less potent”. The “cleavage by MMP-2 (SDS-PAGE)” value in test [4] is recorded as “not”.
With “SDF-1(S4V): SDF-1 mutant, serine at position 4 changed to valine, SEQ ID NO:54”, in test [5], the “activity on T-cell migration” value is “bioactivity comparable to native SDF-1” and the “activity in promoting T cell migration” value is given as “retained most of the activity of unmutated SDF-1”. Moreover, the “chemoattractant activity after MMP-2 incubation” value (“chemoattractant activity” for short) in test [6] is given as “not”. Moreover, in test [6] (listed as S4V variant of SDF-1), the “chemoattractant activity” value is “resistant to activation by MMP-2”.
Take stromal cell derived factor-1 [SDF-1]: the “cleavage by MMP-2 (positional shift on SDS-PAGE)” value in test [4] (incubated with the enzyme for one hour) is recorded as “positional shift indicative of cleavage”. Further, in test [6], the “chemoattractant activity” value is given as “reduce the chemoattractant activity”. Moreover, the EC50 in test [1] was 5 nM.
